Results as given in article PMC12736951, “Design, Synthesis, and Biological Evaluation of 6″-Modified Apramycin Derivatives to Overcome Aminoglycoside Resistance” (Pharmaceutics, 2025).

Assays:
P. aeruginosa ATCC 27853 = experiment: MIC, broth microdilution; format: cell-based; conditions: Pseudomonas aeruginosa, ATCC27853, Table 1
From the text: (§1) The microbial strains used in this study were obtained from the collection of the Gause Institute of New Antibiotics. The control strains included in the analysis were S. aureus ATCC 29213, E. coli ATCC 25922, P. aeruginosa ATCC 27853, M. smegmatis ATCC 607. Clinical isolates E. coli MAR17-1350, K. pneumoniae APEX-5, K. pneumoniae MAR14-3395, and K. pneumoniae MAR18-1752 with multidrug resistance, including resistance to aminoglycosides were kindly provided by the Research Institute of Antimicrobial Chemotherapy (RIAC) of the Smolensk State Medical University, Smolensk. The microbial cultures were stored at −75 °C in trypticase soy broth (Becton, Dickinson, France) containing 10–15% glycerol. Storage was carried out in accordance with CLSI guidelines. Prior to experimentation, the bacterial strains were revived from cryopreservation by inoculating them onto trypticase soy agar (Becton, Dickinson, France) and incubating at (36 ± 1) °C for 16–24 h. Individual morphologically homogeneous colonies were then suspended in sterile physiological saline, and the turbidity of the suspension was adjusted to 0.5 McFarland units using a DEN-1 spectrophotometer (Biosan, Riga, Latvia), which corresponds to a concentration of 1.5 × 10^8 CFU/mL.
(§2) The samples were dissolved in sterile distilled water, depending on the physicochemical properties of the compounds under investigation, to a concentration of 10,000 µg/mL. Working solutions were then prepared by serial dilution, resulting in concentrations ranging from 64 µg/mL to 0.125 µg/mL.
(§3) Activity was evaluated by determining the minimum inhibitory concentration (MIC) values using the microdilution method in Mueller–Hinton Broth (Beckton and Dickinson, Le Pont-de-Claix, France), in accordance with the standard procedure for assessing the antimicrobial susceptibility of microorganisms.
(§4) The analysis was conducted in 96-well microtiter plates (Medpolymer, Saint Petersburg, Russia). The bacterial inoculum was introduced within 15 min of preparation. MIC values were determined after incubation for 15–18 h at (36 ± 1) °C. Microbial growth in the presence of the tested compounds was compared to the growth control (without exposure to the test samples). The MIC was defined as the lowest concentration at which visible microbial growth was inhibited.
(§5) To ensure the accuracy of the results, the control antibiotics kanamycin A, gentamycin, and tobramycin (Abcr GmbH, Karlsruhe, Germany) were included, along with standard reference strains: E. coli ATCC 25922. The MIC values for kanamycin A were determined as follows: E. coli ATCC 25922—1–4 µg/mL [22]. For gentamycin, the MIC values were E. coli ATCC 25922–0.25–1 µg/mL [23]. For tobramycin, the MIC values were E. coli ATCC 25922–0.25–1 µg/mL [23]. The MIC values of the reference strains were required to fall within the acceptable ranges specified in [24], provided that standard assay conditions were maintained.

S. aureus ATCC 29213 = experiment: MIC, broth microdilution; format: cell-based; conditions: Staphylococcus aureus, ATCC29213, Table 1
From the text: as §1, §2, §3, §4, §5

E. coli ATCC 25922 = experiment: MIC, broth microdilution; format: cell-based, Escherichia coli; conditions: Escherichia coli, ATCC25922, Table 1, read-out: MIC
From the text: as §1, §2, §3, §4, §5

E. coli MAR17-1350 = experiment: MIC, MDR clinical isolate; format: cell-based; conditions: Escherichia coli, MAR171350; E. coli MAR17-1350, MDR clinical isolate (NDM-5); read-out: MIC
From the text: as §1, §2, §3, §4, §5

K. pneumoniae APEX-5 = experiment: MIC, MDR clinical isolate; format: cell-based; conditions: Klebsiella pneumoniae, APEX5; K. pneumoniae APEX-5, MDR clinical isolate (NDM-16); read-out: MIC
From the text: as §1, §2, §3, §4, §5

K. pneumoniae MAR14-3395 = experiment: MIC, MDR clinical isolate; format: cell-based; conditions: Klebsiella pneumoniae, MAR143395; K. pneumoniae MAR14-3395, MDR clinical isolate (NDM-1 + OXA-244); read-out: MIC
From the text: as §1, §2, §3, §4, §5

K. pneumoniae MAR18-1752 = experiment: MIC, MDR clinical isolate; format: cell-based; conditions: Klebsiella pneumoniae, MAR181752; K. pneumoniae MAR18-1752, MDR clinical isolate (NDM-1); read-out: MIC
From the text: as §1, §2, §3, §4, §5

E. coli JW5503 ApmR = experiment: MIC against transformant carrying AAC(3)-IV; format: cell-based; conditions: Escherichia coli, JW5503APMR
Experimental: The determination of the MIC values was performed on five strains from the working collection of MSU. E. coli JW5503 [25], which lacked a kanamycin resistance cassette that had been removed as per the method outlined in [26], and a strain derived from this strain through in vitro selection with kanamycin. […] Strains containing AG-modifying enzymes were obtained through the transformation of E. coli JW5503 with plasmids that carried cassettes of resistance, namely pCRISPomyces-2–AAC(3)-IV (Addgene #61737), pdualrep2–APH(3′)-II [27] and pt67–ANT(3″). The MIC determination was performed as described for JW5503 in [19].

[1] = test system: E. coli JW5503 with pJC27 β-galactosidase codon 537 reporter; experiment: Translation accuracy using β-galactosidase reporters; format: cell-based; conditions: 0.1 μL of 50 mg/mL, 37 °C, 18 h, codon 537 GAC/GGG reporters
Experimental: To evaluate translation accuracy in the presence of antibiotics, E. coli JW5503 (kanamycin resistance cassette removed as per) was transformed with pJC27 plasmids. […] The synthesis of active β-galactosidase depends on translation errors occurring (when codons GAC and GGG are read as GAA). Petri dishes (9 cm) containing 20 mL of solid LB agar (1.5%), supplemented with chloramphenicol (11.3 μg/mL) and X-Gal (80 μg/mL), were prepared. A secondary soft-agar layer comprising 3.5 mL of LB agar (0.6%) supplemented with 11.3 μg/mL chloramphenicol and 0.5 mL of liquid culture (A600~1.0) was added and allowed to solidify. Antibiotics were applied to the plates in 0.1 μL aliquots at a concentration of 50 mg/mL for tobramycin, streptomycin, kanamycin, and apramycin, and for 5a, 5b, 8a, and 8b. The plates were then incubated at 37 °C for 18 h. […] The results were documented using a Samsung Galaxy Tab A71 camera.

| Structure (SMILES) | MIC (P. aeruginosa ATCC 27853) [µg/mL] | MIC (S. aureus ATCC 29213) [µg/mL] | MIC (E. coli ATCC 25922) [µg/mL] | MIC (E. coli MAR17-1350) [µg/mL] | MIC (K. pneumoniae APEX-5) [µg/mL] | MIC (K. pneumoniae MAR14-3395) [µg/mL] | MIC (K. pneumoniae MAR18-1752) [µg/mL] | MIC (E. coli JW5503 ApmR) [µg/mL] | induction of translation errors (blue staining at edge of inhibition zone) [1] |
| --- | --- | --- | --- | --- | --- | --- | --- | --- | --- |
| CNC1C(OC2OC(CNCCN)C(N)C(O)C2O)OC2CC(N)C(OC3C(N)CC(N)C(O)C3O)OC2C1O (stereo not drawn) [Compound 5a, 6″-((2-Aminoethyl-1)-amino)-6″-deoxyapramycin acetate] | 8 | 2 | 2 | 4 | 4 | 4 | 4 | > 256 | caused blue staining of the bacterial lawn |
| CNC1C(OC2OC(CNCCCN)C(N)C(O)C2O)OC2CC(N)C(OC3C(N)CC(N)C(O)C3O)OC2C1O (stereo not drawn) [Compound 5b, 6″-((3-Aminopropyl-1)-amino)-6″-deoxyapramycin acetate] | 16 | 2 | 2 | 8 | 8 | 8 | 8 | > 256 | caused blue staining of the bacterial lawn |
| CNC1C(OC2OC(CNCCCNC(=N)N)C(N)C(O)C2O)OC2CC(N)C(OC3C(N)CC(N)C(O)C3O)OC2C1O (stereo not drawn) [Compound 8b, 6″-((3-Guanidinopropyl-1)-amino)-6″-deoxyapramycin acetate] | 8 | 0.5 | 1 | 4 | 2 | 4 | 2 | > 256 | caused blue staining of the bacterial lawn |
| CNC1C(OC2OC(CNCCNC(=N)N)C(N)C(O)C2O)OC2CC(N)C(OC3C(N)CC(N)C(O)C3O)OC2C1O (stereo not drawn) [Compound 8a, 6″-((2-Guanidinoethyl-1)-amino)-6″-deoxyapramycin acetate] | 8 | 0.5 | 1 | 4 | 1 | 2 | 2 | > 256 | caused blue staining of the bacterial lawn |
